# Assay results as given in patent US5965701A, “Kappa receptor opioid peptides” (priority 1997, dated 1999).
# Experiments:
# [1] = molecular target: T1, cloned human kappa (hKOR) receptor (Homo sapiens, UniProt P41145); test: biochemical; format: binding
# T1 construct: expressed in transfected cells; host or cells: HN9.10 (mouse hippocampal neuroblastoma), stably transfected
# [2] = molecular target: T2, cloned human mu opioid (hMOR) receptor (Homo sapiens, UniProt P35372); test: Competition binding at cloned hMOR, displacement of 3H-DAMGO; details: hMOR stably expressed in HN.9.10 cells, read-out: Ki MOR
# T2 construct: expressed in transfected cells; host or cells: HN9.10 (mouse hippocampal neuroblastoma), stably transfected
# T2 sequence (P35372 whole entry): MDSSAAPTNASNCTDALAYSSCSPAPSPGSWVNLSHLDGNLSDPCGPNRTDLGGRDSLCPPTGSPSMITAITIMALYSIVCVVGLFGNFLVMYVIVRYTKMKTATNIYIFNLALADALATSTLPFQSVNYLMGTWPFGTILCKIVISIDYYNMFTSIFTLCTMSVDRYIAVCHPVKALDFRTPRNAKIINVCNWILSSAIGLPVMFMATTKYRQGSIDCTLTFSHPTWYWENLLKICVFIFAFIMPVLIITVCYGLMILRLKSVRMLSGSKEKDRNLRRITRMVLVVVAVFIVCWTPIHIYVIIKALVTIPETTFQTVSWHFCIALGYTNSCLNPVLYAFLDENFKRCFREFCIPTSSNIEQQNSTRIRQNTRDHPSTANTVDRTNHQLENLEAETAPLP
# conscious male ICR mice = test: Mouse acetic acid writhing test (WT); format: in vivo
# Experimental: Selected peptides that are identified in Tables A-G have been further specifically subjected to in vivo testing for determination of duration of action of their opioid properties, and the results are reported in Table H hereinafter. The peptide numbers correspond to those in the earlier tables and the figures with regard to μ/K ratio are simply carried over for reference purposes. The in vivo testing is carried out using a mouse writhing test (WT) that is well-suited for determining the length of duration of antinociceptive biological activity. This test is described in detail in an article by G. A. Bentley et al., Br. J. Phamac., 73:325-332, 1981, and it employs conscious male ICR mice which are purchased from Harlan and which weigh between 20 and 30 grams. The mice are fasted for 12 to 16 hours prior to beginning the test. The nociceptive behavior, i.e. writhing, to be monitored is induced by the intraperitoneal (i.p.) administration of dilute acetic acid. 10 milliliters of 0.6% aqueous acetic acid is used per kg of body weight. Writhing is scored during the 15 minutes following acetic acid administration. In a first step, compounds are tested at 3 to 4 increasing doses, given by intravenous route, and at one unique pretreatment time (-5 minutes before acetic acid injection). […] In a second step, this submaximal effective dose for each specific peptide is administered at various pretreatment times (i.e. -5 minutes, -60 minutes, -120 minutes and -180 minutes) prior to the administration of the acetic acid in order to determine the duration of action. Throughout the test, a control group of mice are used which are administered only the vehicle without the candidate peptide. The number of writhes are counted over a 15-minute period, starting from the time of acetic acid injection, and bioactivity, i.e. antinociception, is expressed as a percentage, and is calculated as follows:
# 100×(writhes in control group-writhes in treated group)/writhes in
# Values higher than 100% indicate greater antinociception than at the beginning of the experiment. It is felt that the opioid peptide should be effective to reduce writhing by at least about 25% at a time of 1 hour to be considered to have long duration of in vivo action.
# In addition to using this test to determine duration of antinociceptive activity, it is also used to measure the in vivo biopotency (short term) of the peptide. This value is given in the table under the heading WT-ED50 in milligrams per kg of body weight. The value is a measure of the dosage necessary to reduce the number of writhes in the mouse being tested by 50% (as compared to a control mouse) over a period of 15 minutes.
# T1 sequence (P41145 whole entry): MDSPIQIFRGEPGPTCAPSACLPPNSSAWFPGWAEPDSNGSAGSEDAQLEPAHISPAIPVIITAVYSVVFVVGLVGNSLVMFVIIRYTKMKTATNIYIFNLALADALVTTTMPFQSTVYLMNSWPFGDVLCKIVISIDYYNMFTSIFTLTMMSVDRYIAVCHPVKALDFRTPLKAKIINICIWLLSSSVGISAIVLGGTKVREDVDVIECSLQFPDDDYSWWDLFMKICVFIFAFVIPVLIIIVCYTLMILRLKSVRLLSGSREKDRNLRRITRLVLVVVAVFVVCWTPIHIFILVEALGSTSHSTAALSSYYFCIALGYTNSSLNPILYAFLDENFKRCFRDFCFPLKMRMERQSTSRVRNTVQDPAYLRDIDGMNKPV
structure (smiles),measurement,setting,value
"CC(C)C[C@@H](NC(=O)[C@@H](Cc1ccccc1)NC(=O)[C@H](N)Cc1ccccc1)C(=O)N[C@H](CCCN)C(=O)N1CCOCC1 [Peptide 57, H-D-Phe-D-Phe-D-Leu-D-Onn-Mor]",μ/κ Ratio (binding affinity for KOR versus MOR),[1]; Ki MOR / Ki KOR,"28,000"
same,Ki,[1]; read-out: Ki KOR,0.19 nM
same,Ki,[2],5260 nM
same,WT-ED50,"conscious male ICR mice; i.v., 5 minutes before acetic acid i.p., writhes over 15 minutes",0.026 mg/kg
same,% Antinociception 1 hr,"conscious male ICR mice; submaximal effective dose i.v., 60 min pretreatment, percentage of the activity found at -5 min",100%
same,% Antinociception 2 hr,"conscious male ICR mice; submaximal effective dose i.v., 120 min pretreatment, percentage of the activity found at -5 min",67.2%
same,% Antinociception 3 hr,"conscious male ICR mice; submaximal effective dose i.v., 180 min pretreatment, percentage of the activity found at -5 min",58.2%
same,TF-ED50,"mouse; i.v., 52° C. water, central effects",5.6 mg/kg
same,BPI (Brain Penetration Index),"mouse; mouse, in vivo, iv",215
